Key:
Cytotoxicity, MTT assay = conditions: human
HIV = conditions: HEK293T cells; ref previous study (Pribut et al. 2021); read-out: IC50 (antiviral activity, previous study); cited from earlier work
[1] = Mouse oral PK and tissue distribution, fasted state; assay type: in vivo; conditions: for Tmax: male, C57BL/6, mouse, lung, po, 10 mg/kg, tissue not stated; for lung AUC, fasted: overnight fast, final time point 24 h
Experimental: It is well established that oral absorption and subsequent tissue distribution of lipophilic drugs can be affected by an animal’s fed state. − Food intake serves as a stimulus for CM production in enterocytes, and therefore, variable fed states contribute to differences in prodrug absorption into the lymphatics. […] To evaluate the impact of fasting on drug absorption and distribution, we modified our protocol to include an overnight fast. This mouse PK experiment was performed as above, with the final time point extended to 24 h (instead of 18) for logistical considerations.
In accordance with the American Chemical Society Guidelines to Publication of Chemical Research, we affirm the use of standard ethical practices when housing and handling research animals, as ensured by the Emory University’s Institutional Animal Care and Use Committee (IACUC) and the Division of Animal Resources (DAR) through a rigorous protocol review, amendment, and approval process. During in vivo experiments, mice were housed in compliance with Emory University’s Division of Animal Resources (DAR) guidelines. For fasting experiments, food was removed the evening before the experiment. Mice had access to water throughout the fasting period. Food was reintroduced 4 h after oral dosing per industry standard protocols. Animals were monitored daily for signs of pain, distress, or adverse events. All procedures were conducted following protocols approved by the Institutional Animal Care and Use Committee (IACUC).
The compounds TXL, 15a, 15b, 21a, 21b, and a vehicle control were prepared at a concentration of 1 mg/mL in a 90:10 solution of olive oil (Sigma-Aldrich, cat. No. O1514) and 190-proof ethanol. The dosing for each mouse was calculated based on individual body weights to achieve a final dose of 10 mg/kg. For example, a 20 g mouse would receive 200 μL of the 1 mg/mL drug formulation, while a 25 g mouse would receive 250 μL.
In accordance with the American Chemical Society Guidelines to Publication of Chemical Research, we affirm the use of standard ethical practices when housing and handling research animals, as ensured by the Emory University’s Institutional Animal Care and Use Committee (IACUC) and the Division of Animal Resources (DAR) through a rigorous protocol review, amendment, and approval process. A total of 220 C57BL6/J male mice (aged 11–12 weeks, weight, 22–30 g) were used for these studies. Each mouse was weighed, recorded, and ear-clipped for identification. The dosing for each mouse was calculated based on individual body weights to achieve a final dose of 10 mg/kg. Animals were anesthetized using isoflurane gas before receiving a single dose of drug prepared as described above using a 22-gauge gavage needle attached to a calibrated syringe.
Time points for tissue collection were 1, 2, 4, 8, and 18 h for unfasted mice, and 1, 2, 4, 8, and 24 h for fasted mice. At each time point, the mice (n = 4 per compound per time point) were anesthetized using isoflurane and subjected to cardiac puncture for blood collection into EDTA-coated tubes. The collected blood samples were immediately placed on ice before the mice were humanely euthanized via cervical dislocation. Brain, liver, lungs, and kidneys were harvested, rinsed in PBS, and placed in prelabeled tubes. Tissues were flash-frozen in liquid nitrogen then transferred to dry ice for storage.
Tissues were weighed (∼50 mg) into homogenization tubes and ACN containing a 10 μM ITSD was added to achieve a final solvent-to-tissue ratio of 4:1. Homogenization beads were added, and the tissues were processed (Biotage Lysera, part no. 19–060) using two 20 s pulses with a 10 s interval period. Homogenate was centrifuged at maximum speed for 1 h, supernatant collected and analyzed via LC-MS using the method described previously. For plasma samples, a 50 μL aliquot was added 200 μL of ACN containing ITSD. […]

[2] = Release of parent TFV in mouse tissues after oral prodrug (fed state); conditions: 10 mg/kg oral prodrug

| decrease in lung concentration under fasted conditions ([1]; 10 mg/kg oral) [%] | SMILES | CC50 at 48 h (Cytotoxicity, MTT assay) [µM] | IC50 (HIV) [µM] | Fasted:Fed PK Ratio, liver AUC ([1]; 10 mg/kg oral) | Fasted:Fed PK Ratio, liver Cmax ([1]; 10 mg/kg oral) | Fasted:Fed PK Ratio, lung AUC ([1]; 10 mg/kg oral) | Fasted:Fed PK Ratio, lung Cmax ([1]; 10 mg/kg oral) | Fasted:Fed PK Ratio, plasma AUC ([1]; 10 mg/kg oral) | Fasted:Fed PK Ratio, plasma Cmax ([1]; 10 mg/kg oral) | Tmax [1] [h] | lung AUC, fasted ([1]; 10 mg/kg oral) | increase in lung AUC in fasted versus fed mice ([1]; 10 mg/kg oral) [fold] | TFV levels (Cmax and AUC) in plasma and liver relative to 21a-treated mice [2] |
| --- | --- | --- | --- | --- | --- | --- | --- | --- | --- | --- | --- | --- | --- |
| – | C[C@H](Cn1cnc2c(N)ncnc21)OCP(=O)(O)OCCCOCCCCCCCCCCCCCCCC(F)(F)F [15a, Ammonium[(1R)-2-(6-aminopurin-9-yl)-1-methyl-ethoxy]methyl-[3-(16,16,16-trifluorohexadecoxy)propoxy]phosphinate] | > 10 | 0.05 | – | – | – | – | – | – | – | – | – | – |
| 17 | C[C@H](Cn1cnc2c(N)ncnc21)OCP(=O)(O)OC[C@H](COCCCCCCCCCCCCCCCC(F)(F)F)OCc1ccccc1 [21a, Ammonium[(1R)-2-(6-Aminopurin-9-yl)-1-methyl-ethoxy]methyl-[(2S)-2-benzyloxy-3-(16,16,16-trifluorohexadecoxy)propoxy]phosphinate] | – | – | 0.76 | 1.6 | 0.83 | 0.69 | 2.4 | 0.72 | 1 | 59,900 h·ng/g | – | – |
| – | CCCCCCCCCCCCCCCCOCCCOP(=O)(O)CO[C@H](C)Cn1cnc2c(N)ncnc21 [TXL, hexadecyloxypropyl (HDP)-TFV, reference compound] | > 10 | – | 0.64 | 1.5 | 2.1 | 2.2 | 1.9 | 1.4 | 4 | 15,600 h·ng/g | 2 | higher levels of TFV |

Source: paper PMC12441861, “Next-Generation Lipid Prodrugs Orally Deliver Tenofovir via Enhanced Chylomicron Incorporation” (ACS Pharmacology & Translational Science, 2025)
